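All cell lines were grown in 96-well plates and treated with compound for 48 hours. TGI marks complete inhibition of growth.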
Experiments:
Experiment in all cases: NCI-60 cell line screen, 48 h
[1] = tested on: UACC-257 melanoma
[2] = tested on: SF-539 CNS
[3] = tested on: UO-31 renal
[4] = tested on: SNB-19 CNS
[5] = tested on: SK-MEL-28 melanoma
[6] = tested on: NCI-H226 lung
[7] = tested on: MDA-MB-435
[8] = tested on: SF-268 CNS
[9] = tested on: HS 578T breast
[10] = tested on: NCI-H460 lung
[11] = tested on: KM12 colon
[12] = tested on: IGROV1 ovarian
[13] = tested on: HT29 colon
[14] = tested on: 786-0 renal
[15] = tested on: CCRF-CEM leukemia
[16] = tested on: HOP-62 NSCLC
[17] = tested on: OVCAR-4 ovarian
[18] = tested on: OVCAR-8 ovarian
[19] = tested on: SN12C renal
[20] = tested on: OVCAR-5 ovarian
[21] = tested on: SNB-75 CNS
[22] = tested on: OVCAR-3 ovarian
[23] = tested on: RPMI-8226 leukemia
[24] = tested on: HL-60(TB) leukemia
[25] = tested on: SR leukemia
[26] = tested on: PC-3 prostate
[27] = tested on: MDA-MB-231 breast
[28] = tested on: HCT-15 colon
[29] = tested on: K-562 leukemia
[30] = tested on: T-47D breast
[31] = tested on: SK-MEL-5 melanoma
[32] = tested on: EKVX NSCLC
[33] = tested on: DU-145 prostate
[34] = tested on: M14 melanoma
[35] = tested on: HOP-92 NSCLC
[36] = tested on: A549 NSCLC
[37] = tested on: MOLT-4 leukemia
[38] = tested on: LOX IMVI melanoma
[39] = tested on: SF-295 CNS
[40] = tested on: SK-OV-3 ovarian
[41] = tested on: UACC-62 melanoma
[42] = tested on: NCI-H522 lung
[43] = tested on: MCF7 breast
[44] = tested on: SK-MEL-2 melanoma
[45] = tested on: BT-549 breast
[46] = tested on: MDA-N
[47] = tested on: RXF 393 renal
[48] = tested on: U251 CNS
[49] = tested on: NCI-H23 lung
[50] = tested on: TK-10 renal
[51] = tested on: COLO 205 colon
[52] = tested on: SW-620 colon
[53] = tested on: MALME-3M melanoma
[54] = tested on: CAKI-1 renal
[55] = tested on: ACHN renal
[56] = tested on: HCT-116 colon
[57] = tested on: HCC-2998 colon
[58] = tested on: NCI/ADR-RES ovarian
[59] = tested on: A498 renal

## c1ccc2c(c1)c1c3c(c4c(n32)=NCCN4)CCC1
[1]
  TGI: > 100 µM
[2]
  TGI: > 100 µM
[3]
  TGI: > 100 µM
[4]
  TGI: > 100 µM
[5]
  TGI: > 100 µM
[6]
  TGI: 80.9 µM
[7]
  TGI: > 100 µM
[8]
  TGI: > 100 µM
[9]
  TGI: > 100 µM
[10]
  TGI: > 100 µM
[11]
  TGI: > 100 µM
[12]
  TGI: > 100 µM
[13]
  TGI: 56.7 µM
[14]
  TGI: > 100 µM
[15]
  TGI: > 100 µM
[16]
  TGI: > 100 µM
[17]
  TGI: > 100 µM
[18]
  TGI: > 100 µM
[19]
  TGI: 49.4 µM
[20]
  TGI: > 100 µM
[21]
  TGI: 71.5 µM
[22]
  TGI: > 100 µM
[23]
  TGI: 63.2 µM
[24]
  TGI: > 100 µM
[25]
  TGI: 47.4 µM
[26]
  TGI: > 100 µM
[27]
  TGI: 98.9 µM
[28]
  TGI: > 100 µM
[29]
  TGI: > 100 µM
[30]
  TGI: 92.1 µM
[31]
  TGI: > 100 µM
[32]
  TGI: > 100 µM
[33]
  TGI: > 100 µM
[34]
  TGI: > 100 µM
[35]
  TGI: 88 µM
[36]
  TGI: > 100 µM
[37]
  TGI: 60.9 µM
[38]
  TGI: 43.3 µM
[39]
  TGI: > 100 µM
[40]
  TGI: > 100 µM
[41]
  TGI: > 100 µM
[42]
  TGI: 61.2 µM
[43]
  TGI: 98.2 µM
[44]
  TGI: 66.2 µM
[45]
  TGI: > 100 µM
[46]
  TGI: 59.3 µM
[47]
  TGI: 60.8 µM
[48]
  TGI: > 100 µM
[49]
  TGI: > 100 µM
[50]
  TGI: > 100 µM
[51]
  TGI: > 100 µM
[52]
  TGI: > 100 µM
[53]
  TGI: > 100 µM
[54]
  TGI: > 100 µM
[55]
  TGI: > 100 µM
[56]
  TGI: > 100 µM
[57]
  TGI: > 100 µM
[58]
  TGI: 99.7 µM
[59]
  TGI: 65.8 µM

## C=CCNC1=C2C[C@@H](C)C[C@H](OC)[C@H](O)[C@@H](C)/C=C(\C)[C@H](OC(N)=O)[C@@H](OC)/C=C\C=C(/C)C(=O)NC(=CC1=O)C2=O
[1]
  TGI: 21.3 µM
[2]
  TGI: 9.5 µM
[3]
  TGI: 21.4 µM
[4]
  TGI: 62.2 µM
[5]
  TGI: 32.5 µM
[6]
  TGI: 28.9 µM
[7]
  TGI: 17 µM
[8]
  TGI: 49.6 µM
[9]
  TGI: 47.5 µM
[10]
  TGI: 15.9 µM
[11]
  TGI: 0.237 µM
[12]
  TGI: 15.1 µM
[13]
  TGI: 12.1 µM
[14]
  TGI: 58.3 µM
[15]
  TGI: 10.6 µM
[16]
  TGI: 23.1 µM
[17]
  TGI: 26.4 µM
[18]
  TGI: 46 µM
[19]
  TGI: 19.4 µM
[20]
  TGI: 22.6 µM
[21]
  TGI: 2.72 µM
[22]
  TGI: 9.64 µM
[23]
  TGI: 26.2 µM
[24]
  TGI: 1.06 µM
[25]
  TGI: 10.3 µM
[26]
  TGI: 40.7 µM
[27]
  TGI: 23.6 µM
[28]
  TGI: 24.5 µM
[29]
  TGI: 29.7 µM
[30]
  TGI: 29.5 µM
[31]
  TGI: 16.5 µM
[32]
  TGI: 31.4 µM
[33]
  TGI: 7.33 µM
[34]
  TGI: 17 µM
[35]
  TGI: 15.9 µM
[36]
  TGI: 17.8 µM
[37]
  TGI: 13 µM
[38]
  TGI: 2 µM
[39]
  TGI: 7.46 µM
[40]
  TGI: 58.8 µM
[41]
  TGI: 4.8 µM
[42]
  TGI: 22.3 µM
[43]
  TGI: 16 µM
[44]
  TGI: 19.1 µM
[45]
  TGI: 31.1 µM
[46]
  TGI: 15 µM
[47]
  TGI: 10.1 µM
[48]
  TGI: 49.5 µM
[49]
  TGI: 8.3 µM
[50]
  TGI: 48.3 µM
[51]
  TGI: 1.67 µM
[52]
  TGI: 33.9 µM
[53]
  TGI: 3.39 µM
[54]
  TGI: 38 µM
[55]
  TGI: 32.2 µM
[56]
  TGI: 26.1 µM
[57]
  TGI: 2.82 µM
[58]
  TGI: 57.3 µM
[59]
  TGI: 30 µM

## CC(NC1=CC(=O)c2cccnc2C1=O)C(O)c1ccccc1 (configuration not stated)
[1]
  TGI: 2.84 µM
[2]
  TGI: 3.75 µM
[3]
  TGI: 9.49 µM
[4]
  TGI: 5.66 µM
[5]
  TGI: 3.1 µM
[6]
  TGI: 4.44 µM
[7]
  TGI: 3.13 µM
[8]
  TGI: 20.8 µM
[9]
  TGI: 8.14 µM
[10]
  TGI: 2.78 µM
[11]
  TGI: 27.8 µM
[12]
  TGI: 6.18 µM
[13]
  TGI: 9.45 µM
[14]
  TGI: 12.2 µM
[15]
  TGI: 25.5 µM
[16]
  TGI: 3.03 µM
[17]
  TGI: 11.1 µM
[18]
  TGI: 17.6 µM
[19]
  TGI: 3.04 µM
[20]
  TGI: 4.69 µM
[21]
  TGI: 3.05 µM
[22]
  TGI: 6 µM
[23]
  TGI: 6.7 µM
[24]
  TGI: 6.69 µM
[25]
  TGI: > 23.1 µM
[26]
  TGI: 10.6 µM
[27]
  TGI: > 46.3 µM
[28]
  TGI: 8.08 µM
[29]
  TGI: 5.93 µM
[30]
  TGI: 18.7 µM
[31]
  TGI: 2.44 µM
[32]
  TGI: 20.1 µM
[33]
  TGI: 3.65 µM
[34]
  TGI: 3.12 µM
[35]
  TGI: 24.5 µM
[36]
  TGI: 5.13 µM
[37]
  TGI: 22.4 µM
[38]
  TGI: 3.16 µM
[39]
  TGI: 2.63 µM
[40]
  TGI: 23.4 µM
[41]
  TGI: 3.1 µM
[42]
  TGI: 3.57 µM
[43]
  TGI: 3.04 µM
[44]
  TGI: 4.48 µM
[45]
  TGI: 3.59 µM
[46]
  TGI: 1.3 µM
[47]
  TGI: 16.5 µM
[48]
  TGI: 13.2 µM
[49]
  TGI: 3.01 µM
[50]
  TGI: 28.1 µM
[51]
  TGI: 3.42 µM
[52]
  TGI: 3.89 µM
[53]
  TGI: 2.94 µM
[54]
  TGI: 7.23 µM
[55]
  TGI: 14.5 µM
[56]
  TGI: 7.79 µM
[57]
  TGI: 10.8 µM
[58]
  TGI: 24.2 µM
[59]
  TGI: 8.82 µM
